Source: article PMC10892142, “Synthesis and In Vitro Antitumor Activity Evaluation of Gefitinib-1,2,3-Triazole Derivatives” (Molecules, 2024)

Key:
[1] = system: H1299 cells; test: Annexin V-EGFP/PI flow cytometry for cell apoptosis; type: cell-based, human; conditions: 48 h
Protocol: H1299 cells were seeded in a 6-well plate at a density of 1 × 10^5 cells/well and incubated for 24 h. The following day, the medium was replaced with fresh medium containing 4b or 4c (2, 4 and 8 μM) and cells were incubated for an additional 48 h. Cell apoptosis was detected using Annexin V-EGFP/PI apoptosis detection kit (Beyotime Biotechnology, Shanghai, China) by flow cytometry. Subsequently, 5 μL of […] Annexin V and 10 μL of PI was added to the cell suspension, gently vortexed and incubated at room temperature in the dark for 20 min. Then, single-cell suspension was prepared followed by flow cytometry (BD Accuri™ C6 Plus, BD Biosciences, Franklin Lake, NJ, USA).

[2] = system: NCI-H1299 cells; test: CCK-8 assay, NCI-H1299 cells; type: cell-based, human; conditions: Homo sapiens, NCI-H1299; CCK-8, 48 h, mean ± SD, n = 3
Protocol: (§1) Next, cell viability was determined according to the instructions of the CCK-8 assay. Then, 10 μL CCK-8 solution was added to each well of the plate and incubated for 1–4 h in the incubator. […] The percentage of viable cells was measured using the following formula where three independent experiments were performed: [(A450sample − A450blank)/(A450control − A450blank)] × 100%.

[3] = system: MMP9; test: Western blot, MMP9 in H1299 cells; type: cell-based, human; conditions: H1299, with increasing drug concentration
Protocol: (§2) Firstly, H1299 cells were treated with the different concentrations of 4b and 4c at 4, 8 and 16 μM for 48 h. Then, cells were harvested using RIPA lysate (R0010, Solarbio, Beijing, China) and centrifuged at 12,000× g rpm for 15 min at 4 °C. Following that, the concentration of total protein was measured and taken from the supernatant. Protein was separated by 12% SDS-polyacrylamide gel electrophoresis and transferred to nitrocellulose filter membrane. After blocking in 5% milk for 2 h, the membranes were incubated with a specific primary antibody at 4 °C overnight. The next day, NC membranes were incubated for 1 h at room temperature with appropriate secondary antibodies and then protein bands were visualizing by chemiluminescence detection (ECL kit, Genview, Beijing, China).

[4] = system: H1299 cells; test: Transwell migration assay; type: cell-based, human; conditions: H1299, 2, 4 and 8 μM, 24 h, vs normal control
Protocol: Transwell assay was used to determine the migration ability of H1299 cells. Cells were starved in serum-free RPMI 1640 medium for 24 h, then detached and resuspended in serum-free RPMI 1640 medium. 5 × 10^5 cells/mL were inoculated into the upper chamber of a 24-well Transwell plate (Corning Inc., Corning, NY, USA), with a volume of 100 μL per well. Then, 100 μL serum-free medium containing 4b or 4c (2, 4 and 8 μM) was added to the upper chamber and the lower chamber was filled with 700 μL medium containing 20% FBS. After incubation for 24 h, H1299 cells on the upper membrane of the transwell were wiped off. The migrated cells were treated with 4% paraformaldehyde for 20 min, stained with 0.1% crystal violet for 20 min and washed three times with PBS. The number of H1299 cells that migrated to the underside of the membrane was counted under the inverted fluorescence microscope. Three randomly selected areas from each transwell were photographed and calculated using Image J.

[5] = system: lung cancer cells; test: CCK-8 assay, lung cancer cells (line not specified); type: cell-based; conditions: read-out: inhibition rate on lung cancer cells
Protocol: (§3) Three types of lung cells and L02 cells were seeded into 96-well plate at a density of 5 × 10^3 cells per well in the logarithmic growth phase and cultured at 37 °C. The cells were then treated initially with different concentrations of compounds 4a–4n (0, 2, 4, 8, 16 and 32 μM) for an additional 48 h, with three replicate wells each. Next, cell viability was determined according to the instructions of the CCK-8 assay. Then, 10 μL CCK-8 solution was added to each well of the plate and incubated for 1–4 h in the incubator. The absorbance was measured at 450 nm using a microplate reader (Bio-Tek, Winooski, VT, USA). The percentage of viable cells was measured using the following formula where three independent experiments were performed: [(A450sample − A450blank)/(A450control − A450blank)] × 100%.

[6] = system: Bcl-2/caspase3/PARP signaling pathway; test: Western blot, apoptosis proteins in H1299 cells; type: cell-based, human; conditions: H1299, 4, 8 and 16 μM, 48 h
Protocol: as §2

[7] = system: H1299 cells; test: Wound healing (cell scratch) assay; type: cell-based, human; conditions: 24 h
Protocol: H1299 cells were seeded in a 6-well plate. When the cell confluency reached 95%, a wound line was scratched using a 200 μl pipette tip and then washed three times. Then, fresh medium containing 4b or 4c (2, 4 and 8 μM) was added and the plate was incubated at 37 °C with 5% CO2. All images were captured at 0 h and 24 h under an inverted microscope, and the quantification of scratches was analyzed using Image J (https://imagej.net/ij/, accessed on 4 January 2024).

[8] = system: NCI-H1437 cells; test: CCK-8 assay, NCI-H1437 cells; type: cell-based; conditions: Homo sapiens, NCI-H1437; CCK-8, 48 h, mean ± SD, n = 3
Protocol: as §1

[9] = system: H1299 cells; test: Colony formation assay; type: cell-based, human; conditions: seven days
Protocol: H1299 cells were seeded in six-well plates at a density of 500 cells per well and treated with 4b or 4c (1, 2 and 4 μM) for seven days. Then, cells were per-fixed with 4% paraformaldehyde for 30 min, stained with 0.1% crystal violet for 15 min and then washed with pure water. After destain with water, the plates were allowed to dry at room temperature overnight. Image J was used to count the number of clone formations.

[10] = system: L02 cells; test: CCK-8 assay, normal hepatic cells L02; type: cell-based; conditions: Homo sapiens; for inhibition at 2 µM / inhibition at 4 µM / inhibition at 8 µM / inhibition at 16 µM / inhibition at 32 µM: L02, 48 h, L02 cells, read-out: Inhibition Rate %, 48 h; for IC50: normal hepatic cells L02, CCK-8, 48 h, mean ± SD, n = 3
Protocol: NCI-H1299, NCI-H1437 and L02 cells were cultured in a humidified incubator (Thermo Scientific™ Forma™ Direct Heat CO2 Incubator, Waltham, MA, USA) at 37 °C with 5% CO2 in RPMI-1640 supplemented with 10% fetal bovine serum (FBS) and 1% Penicillin Streptomycin. A549 cells were cultured in a humidified incubator at 37 °C with 5% CO2 in Ham’s F-12K supplemented with 10% FBS and 1% Penicillin Streptomycin.
as §3

[11] = system: A549 cells; test: CCK-8 assay, A549 cells; type: cell-based; conditions: Homo sapiens, A549; CCK-8, 48 h, mean ± SD, n = 3
Protocol: as §1

[12] = system: H1299 cells; test: DAPI staining for cell apoptosis; type: cell-based, human; conditions: H1299, 2, 4 and 8 μM, 48 h
Protocol: H1299 (1.5 × 10^4–2 × 10^4/well) cells were seeded in 24-well plates for 24 h and then treated with 4b or 4c at the concentrations of 2, 4 and 8 μM for 48 h. The cells were fixed for 30 min at room temperature in 4% paraformaldehyde and washed three times in PBS. Finally, every well was stained with DAPI (10 μg/mL) at room temperature for 30 min and washed at least three times in PBS. The fluorescence microscope was used to observe the morphological changes of cell nuclei.

Structure (SMILES): COc1cc2ncnc(Nc3cccc(-c4cn(Cc5ccccc5Br)nn4)c3)c2cc1OCCCN1CCOCC1 [Compound 4b, N-(3-(1-(2-Bromobenzyl)-1H-1,2,3-triazol-4-yl)phenyl)-7-methoxy-6-(3-morpholinopropoxy)quinazolin-4-amine]
- total apoptotic cell proportion ([1]; H1299, 2 μM): 20.43 ± 1.72%
- total apoptotic cell proportion ([1]; H1299, 4 μM): 43.2 ± 2.4%
- total apoptotic cell proportion ([1]; H1299, 8 μM): 77.4 ± 3.97%
- IC50 [2]: 4.42 ± 0.24 µM
- MMP9 protein expression [3]: decrease in MMP9 protein expression
- number of cells crossing the microporous membrane [4]: significant reduction
- inhibition at 4 µM [5]: 50%
- expression level of Bcl-2 protein [6]: concentration-dependent decrease
- expression level of PARP protein [6]: concentration-dependent decrease
- expression level of caspase 3 protein [6]: concentration-dependent decrease
- expression level of caspase 9 protein [6]: concentration-dependent decrease
- expression level of cleaved PARP protein [6]: increased
- expression level of cleaved caspase 3 protein [6]: increased
- melting point: 165 to 166 °C
- migration closure rate ([7]; H1299, 2 μM): 72.59 ± 2.12%
- migration closure rate ([7]; H1299, 4 μM): 62.42 ± 5.50%
- migration closure rate ([7]; H1299, 8 μM): 49.79 ± 2.22%
- IC50 [8]: 1.56 ± 0.06 µM
- formation of H1299 cell colonies ([9]; 1 μM): significantly inhibit
- formation of H1299 cell colonies ([9]; 4 μM): almost completely inhibited
- inhibition at 2 µM [10]: 9.09 ± 1%
- inhibition at 4 µM [10]: < 20%
- inhibition at 8 µM [10]: 29.8 ± 1.27%
- inhibition at 16 µM [10]: 39.1 ± 2.18%
- inhibition at 32 µM [10]: 64.8 ± 1.84%
- IC50 [10]: 20.2 ± 1.26 µM
- IC50 [11]: 3.94 ± 0.01 µM
- nuclear morphology (DAPI staining) [12]: typical apoptotic features

Structure (SMILES): COc1cc2ncnc(Nc3cccc(-c4cn(Cc5cccc(F)c5)nn4)c3)c2cc1OCCCN1CCOCC1 [Compound 4c, N-(3-(1-(3-Fluorobenzyl)-1H-1,2,3-triazol-4-yl)phenyl)-7-methoxy-6-(3-morpholinopropoxy)quinazolin-4-amine]
- total apoptotic cell proportion ([1]; H1299, 2 μM): 16.37 ± 0.57%
- total apoptotic cell proportion ([1]; H1299, 4 μM): 31.2 ± 2.36%
- total apoptotic cell proportion ([1]; H1299, 8 μM): 51.77 ± 6.74%
- IC50 [2]: 4.6 ± 0.18 µM
- MMP9 protein expression [3]: decrease in MMP9 protein expression
- number of cells crossing the microporous membrane [4]: significant reduction
- inhibition at 4 µM [5]: 50%
- expression level of Bcl-2 protein [6]: concentration-dependent decrease
- expression level of PARP protein [6]: concentration-dependent decrease
- expression level of caspase 3 protein [6]: concentration-dependent decrease
- expression level of caspase 9 protein [6]: concentration-dependent decrease
- expression level of cleaved PARP protein [6]: increased
- expression level of cleaved caspase 3 protein [6]: increased
- melting point: 202 to 203 °C
- migration closure rate ([7]; H1299, 2 μM): 53.26 ± 4.51%
- migration closure rate ([7]; H1299, 4 μM): 40.04 ± 8.02%
- migration closure rate ([7]; H1299, 8 μM): 17.90 ± 3.46%
- IC50 [8]: 3.51 ± 0.05 µM
- formation of H1299 cell colonies ([9]; 1 μM): significantly inhibit
- formation of H1299 cell colonies ([9]; 4 μM): almost completely inhibited
- inhibition at 2 µM [10]: 7.18 ± 1.22%
- inhibition at 4 µM [10]: < 20%
- inhibition at 8 µM [10]: 27.6 ± 2.79%
- inhibition at 16 µM [10]: 30.6 ± 1.93%
- inhibition at 32 µM [10]: 56.1 ± 5.77%
- IC50 [10]: 29.4 ± 5.53 µM
- IC50 [11]: 4 ± 0.08 µM
- nuclear morphology (DAPI staining) [12]: typical apoptotic features
